Experiment [1] addresses T1, VIPR2 (Homo sapiens, UniProt P41587).
T1 sequence (P41587 24-438): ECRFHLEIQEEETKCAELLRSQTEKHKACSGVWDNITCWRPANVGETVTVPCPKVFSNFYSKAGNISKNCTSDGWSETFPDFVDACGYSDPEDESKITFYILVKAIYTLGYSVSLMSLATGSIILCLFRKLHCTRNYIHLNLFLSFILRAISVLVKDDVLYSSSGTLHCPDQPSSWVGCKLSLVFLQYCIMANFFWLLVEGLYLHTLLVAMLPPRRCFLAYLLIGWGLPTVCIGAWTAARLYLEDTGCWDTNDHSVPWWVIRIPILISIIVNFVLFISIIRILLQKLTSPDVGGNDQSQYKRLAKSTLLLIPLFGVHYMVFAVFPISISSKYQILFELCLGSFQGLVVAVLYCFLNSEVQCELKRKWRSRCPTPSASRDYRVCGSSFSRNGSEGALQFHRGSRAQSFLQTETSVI
Briefly: Inhibition of VIP-induced cAMP elevation (% Activity cAMP). Format: cell-based. Further details: expressed in transfected cells; host or cells: HEK293 cells transfected with VIPR2 in pCDNA3.1 (as described). To be noted: Batch 1. An outline of the steps: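 HEK293 cells stably transfected with human VIPR2 were incubated with inhibitor and VIP for 30 min, then cAMP was detected by HTRF after at least 1 h at room temperature. The 665/620 nm ratio ×10,000 was calculated.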

The target in experiment [2] is T1, VIPR2. Briefly: % Activity: inhibition of VIP-induced cAMP elevation and β-arrestin recruitment (Table 2). Format: cell-based. On the set-up: expressed in transfected cells; host or cells: HEK293 cells transfected with VIPR2 in pCDNA3.1 (as described). In short, it runs like this:
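Recruitment of β-arrestin measured by β-gal fragment complementation luminescence in HEK293 cells co-expressing VIPR2-ProLink and β-arrestin2-EA after 2 h compound at 37° C. VIP-driven cAMP rise in stable hVIPR2 HEK293 cells measured by HTRF after 30 min with inhibitor and VIP.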
On the technique in general: Recruitment of arrestin is a read-out of receptor activation apart from second messengers.

Here are results for six molecules from US20150239831A1, “INHIBITORS OF CENTRAL NERVOUS SYSTEM VASOACTIVE INHIBITORY PEPTIDE RECEPTOR 2” (The Trustees Of Columbia University In The City Of New York, priority 2012, published 2015).

The structures appear in SMILES notation.

What is called inhibition is how much of the control response was suppressed. High values mean a strong effect, low ones a weak effect. Take `O=C(N[C@H]1c2ccccc2C[C@H]1O)[C@H](Cc1ccccc1)C[C@H](O)CNS(=O)(=O)c1ccc(C(F)(F)F)cc1` [F]: in experiment [1], the inhibition at 0.5 µM turned out to be 42%, testing at 1 µM gave an inhibition of 63.1% and at 5 µM the inhibition was 98.5%. Moreover, the “% Activity” value in experiment [2] is given as 95.7%.

Regarding `CC(=O)c1ccc(S(=O)(=O)NC[C@@H](O)C[C@@H](Cc2ccccc2)C(=O)N[C@H]2c3ccccc3C[C@H]2O)cc1` [K], in experiment [1], 0.5 µM produced 38.6% inhibition, at 1 µM the inhibition was 61.1% and at 5 µM the inhibition was 96%. Moreover, the “% Activity” value in experiment [2] is on record as 92.35%.

In experiment [1], `N#Cc1ccc(S(=O)(=O)NC[C@@H](O)C[C@@H](Cc2ccccc2)C(=O)N[C@H]2c3ccccc3C[C@H]2O)cc1` [C] came in with an inhibition at 0.5 µM of 27.3%, an inhibition at 1 µM of 43.6% and an inhibition at 5 µM of 93.1%. For the same molecule, the “% Activity” value in experiment [2] is 91.75%.

On to `Cc1ccc(S(=O)(=O)NC[C@@H](O)C[C@@H](Cc2ccccc2)C(=O)N[C@H]2c3ccccc3C[C@H]2O)cc1` [I], for which, in experiment [1], 0.5 µM produced 42.2% inhibition, the inhibition at 1 µM came out at 63.5% and the inhibition at 5 µM stood at 98.2%. Also, the “% Activity” value in experiment [2] came out at 94.1%.

Regarding `COc1ccc(S(=O)(=O)NC[C@@H](O)C[C@@H](Cc2ccccc2)C(=O)N[C@H]2c3ccccc3C[C@H]2O)cc1` [E], in experiment [1], the inhibition at 0.5 µM was 33.9%, at 1 µM the inhibition was 45.9% and 5 µM produced 93.8% inhibition. Further, the “% Activity” value in experiment [2] is given as 91.6%.

In experiment [1], `CC(C)c1ccc(S(=O)(=O)NC[C@@H](O)C[C@@H](Cc2ccccc2)C(=O)N[C@H]2c3ccccc3C[C@H]2O)cc1` [Compound A10] displayed an inhibition at 0.5 µM of 36.5%, an inhibition at 1 µM of 44.2% and an inhibition at 5 µM of 98.2%. The “% Activity” value in experiment [2] came out at 92.95%.
